# Key:
# [1] = target: T1, truncated OBP (tOBP), engineered from OBP-I (Sus scrofa, UniProt P81245, F44A/F66A); experiment: direct fluorescence titration with 1-AMA (ex […] nm, em […] nm), […] °C; Kd […] at […] °C; type: binding
# T1 construct: OBP-I with deletion of the first 16 residues of the N-terminal and F44A and F66A; His-tag at N-terminal
# T1 sequence (P81245 17-157 F44A/F66A): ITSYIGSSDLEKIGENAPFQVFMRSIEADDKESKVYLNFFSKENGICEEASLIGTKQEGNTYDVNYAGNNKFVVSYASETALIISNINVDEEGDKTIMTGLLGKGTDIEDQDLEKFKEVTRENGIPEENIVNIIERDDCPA
# [2] = target: T2, OBP::GQ20::SP-DS3, engineered from OBP-I (Sus scrofa, UniProt P81245); experiment: as above; type: binding
# T2 construct: fusion of OBP-I with a linker of 20 glycine-glutamine repeats (GQ20) and the anchor peptide SP-DS3 ([…]); His-tag at N-terminal
# T2 sequence (P81245 1-157): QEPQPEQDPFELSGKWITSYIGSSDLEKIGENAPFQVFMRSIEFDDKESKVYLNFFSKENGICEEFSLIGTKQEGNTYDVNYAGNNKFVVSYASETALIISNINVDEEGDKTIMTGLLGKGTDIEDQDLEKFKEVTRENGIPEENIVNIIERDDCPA
structure (smiles),measurement,setting,value
"Nc1cccc2cc3ccccc3cc12 [1-AMA, 1-aminoanthracene]",Kd,[1],450 nM
same,Kd,[2],580 nM

# Source: article PMC6172251, “Two Engineered OBPs with opposite temperature-dependent affinities towards 1-aminoanthracene” (Scientific Reports, 2018)
